The data set is described as follows: Metabolic stability in the presence of human hepatic microsomes. It counts as in vitro ADME. Conditions: compound 1 μM (DMSO 0.1%), microsomal protein 0.5 mg/mL, LC/MS/MS. How it is done:
This is illustrated more particularly by the test of metabolic stability in the presence of human hepatic microsomes presented below.
Human hepatic microsomes (Becton Dickinson) are incubated at a protein concentration of 0.5 mg/mL in the reaction mixture.
The reaction mixture of the microsomes consists of phosphate buffer pH: 7.4 at 100 mM, MgCl2 at 100 mM (50/50), a system for generating […] consisting of a mixture of nicotinamide adenine […] (NADP), glucose-6-phosphate (G6P) at 1 mg/mL and glucose-6-phosphate dehydrogenase (G6PDH) at 4 U/mL. The compounds are tested at 1 μM (DMSO 0.1%).
The samples are taken from the incubation medium after adding the microsomes, at time 15 minutes. The metabolic reaction is stopped by adding methanol (1 volume incubation medium/3 volumes of methanol). The percentage of the parent product remaining after 15 minutes is measured by LC/MS/MS analysis.
As for `COCC(COC)n1c(=O)c(-c2cccc(F)c2Cl)cn(CC(=O)N2CCC(N3CCc4cc(OC)ccc4NC3=O)CC2)c1=O` [Compound 232, 5-(2-chloro-3-fluorophenyl)-3-[2-methoxy-1-(methoxymethyl)ethyl]-1-[2-[4-(7-methoxy-2-oxo-4,5-dihydro-1H-1,3-benzodiazepin-3-yl)-1-piperidyl]-2-oxo-ethyl]pyrimidine-2,4-dione], the “% of product remaining at 15 min (human hepatic microsomes)” value (from here on “% of product remaining at 15 min”) is 1%.

For `CC[C@H](C)n1c(=O)c(-c2cccc(F)c2Cl)cn(CC(=O)N2CCC(N3CCc4cc(OC)ccc4NC3=O)CC2)c1=O` [Compound 237, 5-(2-chloro-3-fluorophenyl)-1-[2-[4-(7-methoxy-2-oxo-4,5-dihydro-1H-1,3-benzodiazepin-3-yl)-1-piperidyl]-2-oxo-ethyl]-3-[(1S)-1-methylpropyl]pyrimidine-2,4-dione], the “% of product remaining at 15 min” value was determined as 3%.

For the compound `COc1ccc2c(c1)CCN(C1CCN(C(=O)Cn3cc(-c4cccc(F)c4Cl)c(=O)n(CC(C)(C)OC)c3=O)CC1)C(=O)N2` [Compound 240, 5-(2-chloro-3-fluorophenyl)-3-(2-methoxy-2-methylpropyl)-1-[2-[4-(7-methoxy-2-oxo-4,5-dihydro-1H-1,3-benzodiazepin-3-yl)-1-piperidyl]-2-oxo-ethyl]pyrimidine-2,4-dione], the “% of product remaining at 15 min” value worked out at 0%.

Take `COc1ccc2c(c1)CCN(C1CCN(C(=O)Cn3cc(-c4cccc(F)c4Cl)c(=O)n(CCn4cnnc4)c3=O)CC1)C(=O)N2` [Compound 251, 5-(2-chloro-3-fluorophenyl)-1-[2-[4-(7-methoxy-2-oxo-4,5-dihydro-1H-1,3-benzodiazepin-3-yl)-1-piperidyl]-2-oxo-ethyl]-3-[2-(1,2,4-triazol-4-yl)ethyl]pyrimidine-2,4-dione]: the “% of product remaining at 15 min” value was determined as 4%.

As to `O=C(CN1C(=O)C2(CCCC2)NC[C@H]1c1cc(F)cc(F)c1)Nc1ccc2c(c1)C[C@@]1(C2)C(=O)Nc2ncccc21` [MK-3207, reference compound], the “% of product remaining at 15 min” value is on record as 100%.

Consider `NCCCC[C@H](NC(=O)[C@@H](Cc1cc(Br)c(O)c(Br)c1)NC(=O)N1CCC(N2Cc3ccccc3NC2=O)CC1)C(=O)N1CCN(c2ccncc2)CC1` [Olcegepant, olcegepant, reference compound], for which the “% of product remaining at 15 min” value worked out at 100%.

For `O=C(N[C@@H]1CC[C@@H](c2cccc(F)c2F)CN(CC(F)(F)F)C1=O)N1CCC(n2c(=O)[nH]c3ncccc32)CC1` [Telcagepant, telcagepant, reference compound], the “% of product remaining at 15 min” value is 100%.

For the origin of these results see patent US10246422B2, “Heterocyclic compounds and use thereof in medicine and in cosmetics” (GALDERMA RESEARCH & DEVELOPMENT, priority 2014, dated 2019).
